In patent US6774145B1, “Material separated from Ecklonia cava, method for extracting and purifying the same, and use thereof as antioxidants” (Ventree Co., Ltd, priority 2000, dated 2004):

Experiments:
[1] = DPPH radical scavenging activity (Blois method); format: biochemical; details: reacted 10 min, absorbance at 517 nm
Protocol: (§1) The antioxidative activity of the novel compound obtained through the extraction and purification process is evaluated by measuring its radical scavenging activity against 1,1-diphenyl-2-picrylhydrazyl (DPPH), which has free radicals attached thereto, according to the Blois method. A thermal stability of the compound of interest can be evaluated by measuring its antioxidative activity at plural temperature points.
(§2) Dicaval A and Dicaval B obtained in Example 3 were measured for antioxidative activity according to the Blois method. For this, an examination was made of the radical scavenging activity of the two compounds against 1,1-diphenyl-2-picrylhydrazyl (DPPH) to which free radicals were attached. First, 20 mg of DPPH was dissolved in 150 ml of ethanol to prepare a DPPH solution. To 600 μl of the DPPH solution was added with 250 μl of dimethylsulfoxide (DMSO), diluted with an appropriate amount of ethanol and shaken for 10 seconds, after which this control was adjusted, in absorbance at 517 nm, from 0.94 to 0.97. To 1 ml of the DPPH solution which was adjusted from 0.94 to 0.97 likewise, each of the samples (μg to mg) was added and then, reacted for 10 min, followed by measuring the absorbance of the solution. The antioxidative activity of each of the samples was determined by the DPPH radical scavenging activity which was represented by a reduced absorbance compared with that of the control.
The antioxidative activity was compared between the conventional antioxidants and the compounds of the invention and the results are given in Table 1, below.

[2] = Thermal stability: antioxidative activity after heating for 1 hour; format: physicochemical
Protocol: as §1, §2
50 μg of each of Dicaval A and Dicaval B obtained in Example 3 was heated at 40° C., 60° C., 80° C., and 100° C. for 1 hour to measure antioxidative activity.

[3] = 50 μg heated at 40° C. for 1 hour
[4] = 50 μg heated at 60° C. for 1 hour
[5] = 50 μg heated at 80° C. for 1 hour
[6] = 50 μg heated at 100° C. for 1 hour

SMILES	antioxidative activity (DPPH radical scavenging activity) ([1]; sample amount 10 μg) [%]	antioxidative activity (DPPH radical scavenging activity) ([1]; sample amount 20 μg) [%]	antioxidative activity (DPPH radical scavenging activity) ([1]; sample amount 100 μg) [%]	Antioxidativity (Absorb. change) [2, 3]	Thermal stability (Notes) [2, 3]	Antioxidativity (Absorb. change) [2, 4]	Thermal stability (Notes) [2, 4]	Antioxidativity (Absorb. change) [2, 5]	Thermal stability (Notes) [2, 5]	Antioxidativity (Absorb. change) [2, 6]	Thermal stability (Notes) [2, 6]
Oc1cc(O)c(Oc2c(O)cc(Oc3c(O)cc4c(oc5c(O)c(Oc6cc(O)c(Oc7c(O)cc(O)cc7O)c(O)c6)c(O)cc54)c3O)cc2O)c(O)c1 [Dicaval B]	100	100	100	0.88	Stable	0.88	Stable	0.87	Stable	0.89	Stable
Oc1cc(O)c(Oc2c(O)cc(Oc3cc4oc5c(O)c(Oc6cc(O)c(Oc7c(O)cc(O)cc7O)c(O)c6)c(O)cc5c4cc3O)cc2O)c(O)c1 [Dicaval A]	100	100	100	0.87	Stable	0.89	Stable	0.88	Stable	0.90	Stable
O=C1O[C@H]([C@@H](O)CO)C(O)=C1O [Ascorbic acid, reference compound]	100	100	100								
